Measured values reported in US20080070256A1, “Non-Human Animal Models for B-cell Non-Hodgkin's Lymphoma and Uses Thereof” (NATIONAL JEWISH MEDICAL AND RESEARCH CENTER, priority 2006, published 2008).

Legend:
Eμ-MYC/BCR^HEL tumors = assay: Therapeutic trial on transplanted Eμ-MYC/BCR^HEL tumors (B-CLL model); format: in vivo, mouse; settings: daily intravenous injections for 7 days
Protocol: Groups of 6 mice were utilized for each of the experimental protocols. Four mice bearing transplanted tumors, and two age and sex matched wild type mice were treated with the same drug and equal frequency. The transplant recipient mice were held until tumors became clinically apparent (approximately 100 days for the Eμ-MYC tumors, 58 days for the Eμ-MYC/BCR^HEL tumors, 21 days for the Eμ-MYC/BCR^HEL/sHEL tumors, and 14 days for the MMTV-rtTA/TRE-MYC/BCR^HEL/sHEL tumors). The mice then received daily injections of the indicated agents for 7 days, as applicable. Mice were either euthanized 24 hours after the last injection of drug, or held indefinitely to ascertain survival. Lymph nodes, spleens and bone marrows were collected and processed to generate single cell suspensions. The cells were counted as described above. An aliquot from the cell suspensions was stained with antibodies for B220, Thy 1.2, Mac-1, IgM^a, B7-2, and CD69, in order to determine the proportion of B-cells, T-cells and myeloid cells, as well as the activation status of the HEL-reactive B-cells. Treatments were performed with cyclosporin A (Bedford laboratories, Bedford Ohio) (2 mg/kg/day), FK506 (Prograf, Fujisawa Healthcare, Deerfield, Ill.) (2 mg/kg/day), rapamycin (Biomol, King of Prussia, Pa.) (2 mg/kg/day), and cyclophosphamide (1 mg/kg/day) (Bristol-Myers Squibb, Princeton, N.J.). […]

[1] = test system: Eμ-MYC, Eμ-MYC/BCR^HEL/sHEL and MMTV-rtTA/TRE-MYC/BCR^HEL/sHEL jaw tumors; settings: mouse, in vivo
Protocol: (§1) Groups of 6 mice were utilized for each of the experimental protocols. Four mice bearing transplanted tumors, and two age and sex matched wild type mice were treated with the same drug and equal frequency. The transplant recipient mice were held until tumors became clinically apparent (approximately 100 days for the Eμ-MYC tumors, 58 days for the Eμ-MYC/BCR^HEL tumors, 21 days for the Eμ-MYC/BCR^HEL/sHEL tumors, and 14 days for the MMTV-rtTA/TRE-MYC/BCR^HEL/sHEL tumors). The mice then received daily injections of the indicated agents for 7 days, as applicable. Mice were either euthanized 24 hours after the last injection of drug, or held indefinitely to ascertain survival. Lymph nodes, spleens and bone marrows were collected and processed to generate single cell suspensions. The cells were counted as described above. An aliquot from the cell suspensions was stained with antibodies for B220, Thy 1.2, Mac-1, IgM^a, B7-2, and CD69, in order to determine the proportion of B-cells, T-cells and myeloid cells, as well as the activation status of the HEL-reactive B-cells. Treatments were performed with cyclosporin A (Bedford laboratories, Bedford Ohio) (2 mg/kg/day), FK506 (Prograf, Fujisawa Healthcare, Deerfield, Ill.) (2 mg/kg/day), rapamycin (Biomol, King of Prussia, Pa.) (2 mg/kg/day), and cyclophosphamide (1 mg/kg/day) (Bristol-Myers Squibb, Princeton, N.J.). The therapeutics were suspended in PBS, sterilized by filtration through a 0.22 μm membrane, and administered intravenously through the tail vein.

[2] = test system: MMTV-rtTA/TRE-MYC/BCR^HEL/sHEL tumors (DLBCL); settings: mouse, in vivo
Protocol: (§2) Tumor cells were harvested from lymph nodes and spleens and transplanted. The recipient mice were held until tumors became clinically apparent. Tumor recipient (clear bars) and wild type (filled bars) mice then received daily injections of the indicated drugs for 7 days of either cyclosporine A (csa), FK506, rapamycin (rap) or cyclophosphamide (cyph). The mice were euthanized 24 hours after the last injection of drug, and lymph nodes were harvested for analysis of either total number of cells or surface markers of donor cells (not shown).
(§3) Tumor cells were harvested from lymph nodes and spleens and transplanted as described. The recipient mice were held until tumors became clinically apparent. The mice were then either maintained on a normal mouse diet, or switched on to a diet containing doxycycline, that shut off MYC overexpression. The mice were euthanized at the indicated times, and the lymph nodes were collected, used to generate single cell suspensions, cell counts and flow cytometric analysis.
as §1
(§4) 10^6 cells obtained from tumor-bearing spleen or lymph nodes were transplanted into cohorts of 4-10 mice. […] The tumor bearing and control wild-type mice were then treated daily for seven days with intravenous injections of the various drugs. Mice were either euthanized 24 hours after the last injection of drug, or held indefinitely to ascertain survival. The analysis of tumor burden was performed with cells obtained from lymph nodes and spleens.

[3] = test system: MMTV-rtTA/TRE-MYC/BCR^HEL/sHEL tumors (FLL); settings: mouse, in vivo
Protocol: as §2, §3, §1, §4

[4] = test system: tumors from the jaws of MMTV-rtTA/TRE-MYC/BCR^HEL/sHEL mice; settings: daily intravenous injections for 7 days
Protocol: as §1, §4

[5] = test system: Eμ-MYC/BCR^HEL/sHEL tumors
Protocol: as §1, §4

[6] = test system: tumors derived from Eμ-MYC mice; assay: In vivo drug candidate test, transplanted Eμ-MYC tumors (no surface BCR); design: species or system mouse; settings: treated for 7 days, starting 21 days after transplant
Description: (§5) Cohorts of age and sex matched, syngeneic mice (C57/BL6) are given transplants of tumor cells administered by tail vein injection (inoculum ranges from 10^2-10^6 cells, but all of the mice in one cohort usually get the same dose of cells). The mice are observed daily for 14-21 days for presentation of externally evident clinical signs of hematological malignancies. These include splenomegaly and lymphadenopathy, dehydration, scruffy fur, hunched posture, labored breathing, and an ascending hind limb paralysis. When the mice are visibly sick, they begin treatment with the drug candidate. The mice are either analyzed 24 hours after the last dose of drug in order to ascertain the degree of remission caused by the drug, in an acute manner, or left in the vivarium to determine the extent of survival that is afforded by the treatment, over the normal rate of mortality for untreated, tumor-bearing mice.
In this experiment, cohorts of 10 mice each were given transplants of tumors derived from Eμ-MYC mice.

Raji cells [7] = assay: Apoptosis of Raji cells by propidium iodide stain (subdiploid population); format: cell-based, human; settings: exposure in vitro
Description: In order to validate the observations obtained in the mouse models of BL, the inventors tested whether the pharmacological inhibition of Syk in a human BL cell line (Raji) also results in the reduced viability of those cells. […] Similar results are observed upon the shRNA-mediated disruption of Syk expression in Raji cells.

Raji cells [8] = assay: MTS viability assay on Raji cells; format: cell-based, human; settings: increasing concentrations
Protocol: (§6) The inventors obtained a highly specific pharmacological inhibitor of Syk through a collaboration with Rigel Pharmaceuticals. […] Also tested were the effects of the Syk kinase inhibitor on primary murine BL the inventors obtained from triply transgenic mice (Example 2). In addition, the effects of R408 were tested on three cell lines derived from human BL tumors (Raji, Ramos and Daudi). […] The cells and drug were incubated at a final volume of 200 μl in each well. Each condition was set up in triplicate wells, in any one experiment. […] The plates were read with a Molecular Dynamics ELISA plate reader, at OD 490. The data presented in FIGS. 29A-29D is from one experiment, representative of three independent assays. The error bars represent the standard deviations. […] The cells were cultured for 22 hours with the compound, and pulsed for the last 2 hours with MTS reagent. The O.D.490 absorbance of the wells was determined 24 hours after the beginning of the experiment. All conditions were tested in triplicate wells. The error bars represent the standard deviations of the triplicate wells.
In order to validate the observations obtained in the mouse models of BL, the inventors tested whether the pharmacological inhibition of Syk in a human BL cell line (Raji) also results in the reduced viability of those cells. […]

[9] = test system: murine BL cell lines (TBL-1, TBL-8, TBL-9, TBL-14); assay: MTS viability assay, murine BL cell lines; format: cell-based, mouse; settings: 24 hours
Protocol: as §6
Using this approach, four primary tumors derived from Eμ-MYC/BCR^HEL/sHEL mice have been tested, three cell lines derived from such tumors (TBL-1, TBL-8 and TBL-14), as well as a T-cell lymphoma cell line (iTLS-10). […] The cells were incubated for an MTS assay as described elsewhere herein. […]

[10] = test system: tumors derived from Eμ-MYC/BCR^HEL mice; assay: In vivo drug candidate test, transplanted murine B-CLL tumors; design: species or system mouse
Description: In this experiment, cohorts of 20 mice each were given transplants of tumors derived from Eμ-MYC/BCR^HEL (resemble human B-CLL) mice. […] Part of the cohort was euthanized and evaluated for remission acutely (left set of graphs).

[11] = test system: tumors derived from Eμ-MYC/BCR^HEL/sHEL mice; assay: In vivo drug candidate test, transplanted murine BL tumors; design: species or system mouse; settings: transient 7 day treatment, starting 20 days after transplant
Description: as §5
In another experiment, depicted in FIG. 33, cohorts of 10 mice each were given transplants of tumors derived from Eμ-MYC/BCR^HEL/sHEL (resemble human BL) mice. 20 days later, when the mice presented externally evident signs of disease, they were treated for 7 days with R788. This cohort was observed over time for kinetics and time frame of mortality following transient treatment with R788.

[12] = daily intravenous injections for 7 days

O=P1(N(CCCl)CCCl)NCCCO1 (stereo not shown) [cyclophosphamide]
response of transplanted Eμ-MYC/BCR^HEL tumors to drug (Eμ-MYC/BCR^HEL tumors): responded | general cytotoxicity (reduction in T cells, myeloid cells, non-transgenic B cells) [1]: more general cytotoxicity | response of the transplanted tumors to drug [1]: strong response | tumor regression [1]: tumor regression in each instance | tumor regression (Eμ-MYC tumors; [12]): tumor regression in all animals | response of transplanted Eμ-MYC tumors to drug (tumor burden, lymph nodes and spleens) (Eμ-MYC tumors; daily intravenous injections for 7 days, analysed 24 hours after last injection): strong response | general cytotoxicity (reduction in T-cells, myeloid cells, non-transgenic B-cells) (Eμ-MYC tumors; tumor-bearing mice, 7 days treatment): more general cytotoxicity | remission [2]: brief remission | survival compared with untreated tumor-bearing mice [2]: died more rapidly than did untreated, tumor-bearing mice | response of transplanted MMTV-rtTA/TRE-MYC/BCR^HEL/sHEL tumors to drug ([2]; iv): responded | remission [3]: brief remission | survival compared with untreated tumor-bearing mice [3]: died more rapidly than did untreated, tumor-bearing mice | response of transplanted MMTV-rtTA/TRE-MYC/BCR^HEL/sHEL tumors to drug ([3]; iv): responded | response of transplanted MMTV-rtTA/TRE-MYC/BCR^HEL/sHEL jaw tumors to drug [4]: responded | remission ([5]; after seven-day treatment): brief remission | survival compared with untreated tumor-bearing mice ([5]; after seven-day treatment, observed 100 days): died more rapidly than did untreated, tumor-bearing mice | response of transplanted Eμ-MYC/BCR^HEL/sHEL tumors to drug [5, 12]: responded

COc1cc(Nc2ncc(F)c(Nc3ccc4c(n3)NC(=O)C(C)(C)O4)n2)cc(OC)c1OC [R406]
survival of tumor-bearing mice [6]: does not extend the survival | apoptosis (subdiploid population, propidium iodide) (Raji cells [7]): undergo apoptosis | viability of Raji cells (MTS) (Raji cells [8]): dose response decrease in viability | cell viability (MTS) [9]: susceptible

COc1cc(Nc2ncc(F)c(Nc3ccc4c(n3)N(COP(=O)(O)O)C(=O)C(C)(C)O4)n2)cc(OC)c1OC [R788]
survival of tumor-bearing mice [6]: perished at the same rate and time frame as their untreated, tumor-bearing counterparts | survival versus untreated counterparts ([10]; transient 7 day treatment): twice as long | tumor burden (number of cells in lymph nodes and spleens) ([10]; treated for 7 days, starting 24 days after transplant): significantly decreased the tumor burden | survival versus untreated counterparts [11]: at least twice as long
